# From paper PMC10938783, “A novel pan-PI3K inhibitor KTC1101 synergizes with anti-PD-1 therapy by targeting tumor suppression and immune activation” (Molecular Cancer, 2024)
# Assays:
# [1] = tested on: phosphorylation of AKT and mTOR; experiment: Western blot of PI3K pathway; format: cell-based, human; settings: 48 h
# Experimental: Western blots were performed as previously described. Cells were seeded into six-well plates and treated with DMSO or a series of concentrations of KTC1101. Cells were lysed, and total proteins were harvested. Equal amounts of protein (20–50 μg) were separated using 8% or 12% SDS-PAGE and transferred to polyvinylidene difluoride membranes (Bio-Rad). After blocking in 5% nonfat dry milk, the membranes were incubated with appropriate primary antibodies overnight at 4 °C, washed, and incubated with respective HRP-conjugated secondary antibodies for 1 h at room temperature. The signals were detected using a ChemiDoc XRS + System (Bio-Rad) after exposure to chemiluminescence reagents (Bio-Rad), and β-actin served as the loading control.
# [2] = tested on: kinase panel comprising 50 kinases; experiment: Kinase profiling, panel of 50 kinases; format: biochemical; settings: 1 μM
# Experimental: Procedures for the preparation of KTC1101 are described in supplemental data. To investigate the PI3K inhibitory efficacy of KTC1101, its impact on the kinase activity of PI3K isoforms was assessed using the Adapta kinase assay as previously reported. Initially, a dilution series of 2.5 µL KTC1101 or DMSO (control) was prepared and added to the respective wells of a 384-well plate. Subsequently, optimized 2.5 µL kinase solutions, including PIK3CA/PIK3R1, PIK3CB/PIK3R1, PIK3CG, and PIK3CD/PIK3R1, were introduced to each well. After adding the kinase solutions, 5 µL ATP and PIP2:PS lipid kinase substrate was introduced into each well and incubated for 1 h at room temperature. This step allows for the initiation and progression of the kinase reaction. Following the incubation, a detection solution (5 µL) was added to all the wells. This solution contained 30 mM EDTA to stop the kinase reaction, 6 nM Eu-labeled anti-ADP antibody, and a 3 × concentration of Alexa Fluor® 647 ADP tracer. The EDTA effectively terminates the kinase reaction, while the anti-ADP antibody and ADP tracer are crucial for the detection of ADP produced during the kinase reaction, which correlates with PI3K activity. […] Finally, the fluorescence of each well was measured using a Multi-Mode Microplate Reader (Spark, Tecan). […]
# HSC2 tumors = experiment: HSC2 xenograft in BALB/c nude mice; format: in vivo, mouse; settings: 100 mg/kg PO
# Experimental: BALB/c nude, NSG, and C57BL/6J mice were obtained from Tianjin Medical University. The housing temperature was controlled, ranging from 20.5–24 °C, and humidity was monitored but not controlled ranging from 30–70%. The 12-h daily light cycle was from 06:00 to 18:00. To generate a murine subcutaneous tumor model, PC3 and HSC2 cells were subcutaneously injected into the right lateral flank of 4- to 5-week-old male BALB/c nude mice. TMD8, CAL33, and S24 cells were subcutaneously injected into the right lateral flank of 4- to 5-week-old male NSG mice. When tumors reached a volume of 300–500 mm^3, they were excised, diced into 2 mm × 2 mm × 2 mm pieces, and implanted into the right flanks of BALB/c nude or NSG mice. Tumors were allowed to grow to a volume of 100 mm^3, and then the animals were randomly divided into several groups. Each group of five mice was treated with either vehicle or KTC1101 (25, 50, or 100 mg/kg, PO). Tumor size was measured every 3 d or 4 d until the endpoint. The tumor volume was calculated using the following formula: length × width × height/2. At the end of the experimental period, mice were euthanized by overdosing on pentobarbital sodium, and the tumors were removed. Tumor tissue was formalin-fixed and paraffin-embedded for histological analysis.
smiles,measurement,setting,value
"COc1cc(N)cc2c1nc(C(F)F)n2-c1nc(N2CCCOCC2)nc(N2CCOCC2)n1 [KTC1101, 2-(difluoromethyl)-4-methoxy-1-(4-morpholino-6-(1,4-oxazepan-4-yl)-1,3,5-triazin-2-yl)-1H-benzo[d]imidazol-6-amine]",phosphorylation of AKT and mTOR,[1],reduced phosphorylation
same,"inhibition rate, all four PI3K targets",[2],greater than 90%
same,"inhibition rate, other kinases of the panel",[2],less than 50%
same,tumor growth,HSC2 tumors,Tumor growth arrest
